From US20260070945A1, “MACROCYCLIC IMMUNOMODULATORS” (Bristol-Myers Squibb Company, priority 2022, published 2026)
*1 amine or outer side, *2 acyl side, *3 side chain or, on linkers, in order; H or OH if unused. Where a SMILES comes first, the peptide text is derived from it. Bridges are numbered along the chain shown (N, C = ends). [ ]: non-standard residue; d: D form. The star is where a group is joined. ξ: configuration not given here. Phe(4-COOH) = N[C@@H](Cc1ccc(C(=O)O)cc1)C(=O)O; Bip = N[C@@H](Cc1ccc(-c2ccccc2)cc1)C(=O)O; Phe(3-Me) = Cc1cccc(C[C@H](N)C(=O)O)c1; X11 = CC[C@@H](C)C(N[*:1])C(=O)[*:2]; hArg = N=C(N)NCCCC[C@H](N)C(=O)O; 4Pal = N[C@@H](Cc1ccncc1)C(=O)O; Cha = N[C@@H](CC1CCCCC1)C(=O)O; Ile(3ξ) = CCC(C)[C@H](N)C(=O)O; Carboxymethyl = O=C(O)C*; NMeA = CN[C@@H](C)C(=O)O; Orn = NCCC[C@H](N)C(=O)O; Aun = NCCCCCCCCCCC(=O)O; Dab = NCC[C@H](N)C(=O)O; Dap = NC[C@H](N)C(=O)O; AEEA = NCCOCCOCC(=O)O

molecular target: T1, PD-1/PD-L1 interaction (PE-labeled human PD-L1-Ig binding to Jurkat cell line over-expressing human PD-1) (Homo sapiens, UniProt Q15116); experiment: Jurkat-PD-1 Cell Binding High-Content Screening Assay (CBA); settings: Jurkat-hPD-1 cells, PE-labeled PD-L1-Ig 20 nM final; read-out: Jurkat HPD1 PDL1 IC50
T1 construct: expressed in transfected cells; host or cells: Jurkat
In short: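 Compound is added first to the PD-1-expressing Jurkat cells and held 2 h at 37 °C in serum-containing DMEM. The fluorescent PD-L1 fusion follows at 20 nM final for 1 h. Fixed, Hoechst-stained cells are then imaged for bound label.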

T1 sequence (Q15116 25-288): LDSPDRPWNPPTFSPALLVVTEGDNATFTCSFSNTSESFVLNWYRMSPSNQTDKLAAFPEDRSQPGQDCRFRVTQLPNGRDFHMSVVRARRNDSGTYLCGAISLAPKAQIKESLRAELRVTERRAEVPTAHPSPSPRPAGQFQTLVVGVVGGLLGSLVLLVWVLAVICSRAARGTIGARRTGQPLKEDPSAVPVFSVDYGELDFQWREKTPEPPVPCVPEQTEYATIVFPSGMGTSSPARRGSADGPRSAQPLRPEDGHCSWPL

| SMILES | IC50 [nM] |
| --- | --- |
| CC(C)C[C@H]1NC(=O)[C@H](C)N(C)C(=O)[C@H](C(C)C)NC(=O)[C@H](Cc2ccc(-c3ccccc3)cc2)NC(=O)[C@H](C(C)C)NC(=O)[C@H](Cc2c[nH]c3ccccc23)NC(=O)[C@H](CC(=O)O)NC(=O)[C@H](Cc2ccc(OCC(=O)O)cc2)NC(=O)[C@H](CCCCNC(=N)N)NC(=O)CSC[C@@H](C(=O)N[C@@H](CCN)C(=O)NCCCCCCCCCCC(=O)O)NC(=O)[C@H](CO)NC(=O)[C@H](C(C)C)NC(=O)[C@H](CC2CCCCC2)NC(=O)[C@H](CCN)NC1=O [Example 2191] ({CH2CO}-[hArg]Y(Carboxymethyl)DWV[Bip]V[NMeA][dL][Dab][Cha]VSC[Dab][Aun]-OH; thioether N-14) | 13.4 |
| CC(C)C[C@@H]1NC(=O)[C@H](Cc2c[nH]c3ccccc23)NC(=O)[C@H](CC(=O)O)NC(=O)[C@H](Cc2ccc(C(=O)O)cc2)NC(=O)[C@H](Cc2ccc(OCC(=O)O)cc2)NC(=O)CSC[C@@H](C(=O)N[C@@H](CCN)C(=O)NCCOCCOCC(=O)NCCCCCCCCCCC(=O)O)NC(=O)[C@H](CCCCN)NC(=O)[C@H](C(C)C)NC(=O)[C@H](CC2CCCCC2)NC(=O)[C@H](CCN)NC(=O)[C@@H](CC(C)C)NC(=O)[C@H](C)N(C)C(=O)[C@H](C(C)C)NC(=O)[C@H](Cc2ccc(-c3ccccc3)cc2)NC1=O [Example 2192] ({CH2CO}-Y(Carboxymethyl)[Phe(4-COOH)]DWL[Bip]V[NMeA][dL][Dab][Cha]VKC[Dab][AEEA][Aun]-OH; thioether N-14) | 7.6 |
| CC(C)C[C@@H]1NC(=O)[C@H](Cc2c[nH]c3ccccc23)NC(=O)[C@H](CC(=O)O)NC(=O)[C@H](Cc2c[nH]cn2)NC(=O)[C@H](CCCCNC(=N)N)NC(=O)CSC[C@@H](C(=O)N[C@@H](CCN)C(=O)NCCCCCCCCCCC(=O)O)NC(=O)[C@H](CCCCN)NC(=O)[C@H](C(C)C)NC(=O)[C@H](CC2CCCCC2)NC(=O)[C@H](CCN)NC(=O)[C@@H](CC(C)C)NC(=O)[C@H](C)N(C)C(=O)[C@H](C(C)C)NC(=O)[C@H](Cc2ccc(-c3ccccc3)cc2)NC1=O [Example 2194] ({CH2CO}-[hArg]HDWL[Bip]V[NMeA][dL][Dab][Cha]VKC[Dab][Aun]-OH; thioether N-14) | 39.6 |
| CC(C)C[C@@H]1NC(=O)[C@H](Cc2c[nH]c3ccccc23)NC(=O)[C@H](CC(=O)O)NC(=O)[C@H](Cc2c[nH]cn2)NC(=O)[C@H](CCCCNC(=N)N)NC(=O)CSC[C@@H](C(=O)N[C@@H](CCN)C(=O)NCCCCCCCCCCC(=O)O)NC(=O)[C@H](CCCN)NC(=O)[C@H](C(C)C)NC(=O)[C@H](CC2CCCCC2)NC(=O)[C@H](CCN)NC(=O)[C@@H](CC(C)C)NC(=O)[C@H](C)N(C)C(=O)[C@H](C(C)C)NC(=O)[C@H](Cc2ccc(-c3ccccc3)cc2)NC1=O [Example 2195] ({CH2CO}-[hArg]HDWL[Bip]V[NMeA][dL][Dab][Cha]V[Orn]C[Dab][Aun]-OH; thioether N-14) | 80.3 |

More lines, now with the values ahead:

| IC50 [nM] | SMILES |
| --- | --- |
| 94 | CC[C@@H](C)C1NC(=O)[C@H](Cc2ccc(-c3ccccc3)cc2)NC(=O)[C@H](CC(C)C)NC(=O)[C@H](Cc2cccc(C)c2)NC(=O)[C@H](CC(=O)O)NC(=O)[C@H](Cc2ccc(O)cc2)NC(=O)[C@H](Cc2ccccc2)NC(=O)CSC[C@@H](C(=O)N[C@@H](CCN)C(=O)NCCCCCCCCCCC(=O)O)NC(=O)[C@H](CCCCN)NC(=O)[C@H](C(C)C)NC(=O)[C@H](CC(C)C)NC(=O)[C@H](CCN)NC(=O)[C@@H](C)NC(=O)[C@H](C)N(C)C1=O (stereo partly shown) [Example 2197] ({CH2CO}-FYD[Phe(3-Me)]L[Bip][X11][NMeA][dA][Dab]LVKC[Dab][Aun]-OH; thioether N-14) |
| 73 | Cc1cccc(C[C@@H]2NC(=O)[C@H](CC(=O)O)NC(=O)[C@H](Cc3ccc(O)cc3)NC(=O)[C@H](Cc3ccccc3)NC(=O)CSC[C@@H](C(=O)N[C@@H](CCN)C(=O)NCCCCCCCCCCC(=O)O)NC(=O)[C@H](CCCN)NC(=O)[C@H](C(C)C)NC(=O)[C@H](CC(C)C)NC(=O)[C@H](CCN)NC(=O)[C@@H](C)NC(=O)[C@H](C)N(C)C(=O)[C@H](C(C)C)NC(=O)[C@H](Cc3ccc(-c4ccccc4)cc3)NC(=O)[C@H](CC(C)C)NC2=O)c1 [Example 2198] ({CH2CO}-FYD[Phe(3-Me)]L[Bip]V[NMeA][dA][Dab]LV[Orn]C[Dab][Aun]-OH; thioether N-14) |
| 132 | CCC(C)[C@@H]1NC(=O)[C@H](Cc2ccc(-c3ccccc3)cc2)NC(=O)[C@H](CC(C)C)NC(=O)[C@H](Cc2cccc(C)c2)NC(=O)[C@H](CC(=O)O)NC(=O)[C@H](Cc2ccc(O)cc2)NC(=O)[C@H](Cc2ccccc2)NC(=O)CSC[C@@H](C(=O)N[C@@H](CN)C(=O)NCCCCCCCCCCC(=O)O)NC(=O)[C@H](CCCN)NC(=O)[C@H](C(C)C)NC(=O)[C@H](CC(C)C)NC(=O)[C@H](CCN)NC(=O)[C@@H](C)NC(=O)[C@H](C)N(C)C1=O (stereo partly shown) [Example 2199] ({CH2CO}-FYD[Phe(3-Me)]L[Bip][Ile(3ξ)][NMeA][dA][Dab]LV[Orn]C[Dap][Aun]-OH; thioether N-14) |
| 20.6 | CCC(C)[C@@H]1NC(=O)[C@H](Cc2ccc(-c3ccccc3)cc2)NC(=O)[C@H](CC(C)C)NC(=O)[C@H](Cc2cccc(C)c2)NC(=O)[C@H](CC(=O)O)NC(=O)[C@H](Cc2ccc(O)cc2)NC(=O)[C@H](Cc2ccncc2)NC(=O)CSC[C@@H](C(=O)N[C@@H](CCN)C(=O)NCCCCCCCCCCC(=O)O)NC(=O)[C@H](CCCCN)NC(=O)[C@H](C(C)C)NC(=O)[C@H](CC(C)C)NC(=O)[C@H](CCN)NC(=O)[C@@H](C)NC(=O)[C@H](C)N(C)C1=O (stereo partly shown) [Example 2200] ({CH2CO}-[4Pal]YD[Phe(3-Me)]L[Bip][Ile(3ξ)][NMeA][dA][Dab]LVKC[Dab][Aun]-OH; thioether N-14) |
| 15.2 | Cc1cccc(C[C@@H]2NC(=O)[C@H](CC(=O)O)NC(=O)[C@H](Cc3ccc(O)cc3)NC(=O)[C@H](Cc3ccncc3)NC(=O)CSC[C@@H](C(=O)N[C@@H](CCN)C(=O)NCCCCCCCCCCC(=O)O)NC(=O)[C@H](CCCN)NC(=O)[C@H](C(C)C)NC(=O)[C@H](CC(C)C)NC(=O)[C@H](CCN)NC(=O)[C@@H](C)NC(=O)[C@H](C)N(C)C(=O)[C@H](C(C)C)NC(=O)[C@H](Cc3ccc(-c4ccccc4)cc3)NC(=O)[C@H](CC(C)C)NC2=O)c1 [Example 2201] ({CH2CO}-[4Pal]YD[Phe(3-Me)]L[Bip]V[NMeA][dA][Dab]LV[Orn]C[Dab][Aun]-OH; thioether N-14) |
| 31.3 | CCC(C)[C@@H]1NC(=O)[C@H](Cc2ccc(-c3ccccc3)cc2)NC(=O)[C@H](CC(C)C)NC(=O)[C@H](Cc2cccc(C)c2)NC(=O)[C@H](CC(=O)O)NC(=O)[C@H](Cc2ccc(O)cc2)NC(=O)[C@H](Cc2ccncc2)NC(=O)CSC[C@@H](C(=O)N[C@@H](CN)C(=O)NCCCCCCCCCCC(=O)O)NC(=O)[C@H](CCCN)NC(=O)[C@H](C(C)C)NC(=O)[C@H](CC(C)C)NC(=O)[C@H](CCN)NC(=O)[C@@H](C)NC(=O)[C@H](C)N(C)C1=O (stereo partly shown) [Example 2202] ({CH2CO}-[4Pal]YD[Phe(3-Me)]L[Bip][Ile(3ξ)][NMeA][dA][Dab]LV[Orn]C[Dap][Aun]-OH; thioether N-14) |
